{"source": "patent US7390797B2", "about": "“Fused indazole compounds” (Eisai Co., Ltd., priority 2002, dated 2008)", "molecular_target": "T1, Human JNK 3 (Homo sapiens, UniProt P53779)", "T1 construct": "made in house; host or cells: Escherichia coli", "T1 sequence (P53779 whole entry, the tested form may be a part)": "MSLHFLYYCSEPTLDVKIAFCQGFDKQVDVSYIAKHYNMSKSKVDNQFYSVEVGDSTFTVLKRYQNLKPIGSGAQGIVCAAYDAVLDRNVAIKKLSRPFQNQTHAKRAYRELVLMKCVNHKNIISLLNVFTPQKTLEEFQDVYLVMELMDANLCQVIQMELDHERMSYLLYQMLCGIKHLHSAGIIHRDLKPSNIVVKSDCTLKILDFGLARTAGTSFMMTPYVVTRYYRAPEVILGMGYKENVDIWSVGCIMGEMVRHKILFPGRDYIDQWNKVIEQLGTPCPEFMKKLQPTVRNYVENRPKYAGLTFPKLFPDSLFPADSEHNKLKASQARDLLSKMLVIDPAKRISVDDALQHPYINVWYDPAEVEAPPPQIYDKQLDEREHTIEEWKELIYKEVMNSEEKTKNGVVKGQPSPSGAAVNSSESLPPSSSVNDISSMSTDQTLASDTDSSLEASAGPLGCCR", "experiment": "Determination of JNK 3 Inhibition", "type": "biochemical", "details": "GST-JNK 3 enzyme, GST-c-Jun (1-169) substrate, [γ-33P]ATP, 3.33 μM ATP, 30 minutes, SPA beads", "description": "Test Example 1 Determination of JNK 3 Inhibition\nHuman JNK 3 was expressed as a fusion protein (GST-JNK 3) with glutathione S-transferase (GST) in Escherichia coli and was purified using glutathione Sepharose 4B beads. The amino acid sequence 1-169 of c-Jun was […] as a fusion protein (GST-c-Jun) with GST in Escherichia coli, was purified using glutathione Sepharose 4B beads and was used as a substrate. A test compound was diluted with 100% dimethyl sulfoxide into 10 mM and was then further diluted with 10% aqueous dimethyl sulfoxide solution to yield a dilution series. To each well of 96-well OPTI plate (available from Packard) were placed 20 μl of the diluted compound, 30 μl of a substrate solution (1.2 μg of GST-c-Jun, […], 0.2 μCi of [γ-^33P]ATP, 25 mM of HEPES pH=7.5, 10 mM of magnesium acetate, and 3.33 μM of ATP), and 50 μl of an enzyme solution (0.04 μg of GST-JNK 3, 25 mM of HEPES pH=7.5, and 10 mM magnesium acetate) up to 100 μl, and the mixture was allowed to react for 30 minutes. After terminating the reaction by adding 100 μl of a reaction terminator (80 mM ATP, 5 mg/ml glutathione SPA beads (available from Amersham Pharmacia Biotech)), the reaction mixture was shaken for 30 minutes. The mixture was centrifuged at room temperature at 1000×g for 5 minutes, and the emission intensity thereof was determined on a TopCount™ illuminator (available from Packard). The activity is expressed by the 50% inhibitory concentration on the enzymatic activity of JNK, i.e., IC50 (nM).", "data": [{"smiles": "Cc1cc(Br)c2[nH]nc3c2c1NC(=O)c1ccccc1-3", "note": "[Example 26, 3-Bromo-5-methyl-6,7-dihydro-2H-benzo[5,6]azepino[4,3,2-cd]indazol-7-one]", "values": [{"measurement": "IC50", "value": "≤ 300", "unit": "nM"}]}, {"smiles": "OCc1cccc2c1C=Cc1cccc3[nH]nc-2c13", "note": "[Example 6, 2H-Benzo[6,7]cyclohepta[cd]indazol-8-ylmethanol]", "values": [{"measurement": "IC50", "value": "≤ 300", "unit": "nM"}]}, {"smiles": "O=C(NCc1ccco1)c1cccc2c1C=Cc1cccc3[nH]nc-2c13", "note": "[Example 20, N8-(2-Furylmethyl)-2H-benzo[6,7]cyclohepta[cd]indazole-8-carboxamide]", "values": [{"measurement": "IC50", "value": "≤ 300", "unit": "nM"}]}, {"smiles": "C1=Cc2cccc3[nH]nc(c23)-c2ccccc21", "note": "[Example 9, 2H-Benzo[6,7]cyclohepta[cd]indazole]", "values": [{"measurement": "IC50", "value": "≤ 300", "unit": "nM"}]}, {"smiles": "O=C(NC1CC1)c1cccc2c1C=Cc1cccc3[nH]nc-2c13", "note": "[Example 21, N8-Cyclopropyl-2H-benzo[6,7]cyclohepta[cd]indazole-8-carboxamide]", "values": [{"measurement": "IC50", "value": "≤ 300", "unit": "nM"}]}, {"smiles": "Cc1ccc2[nH]nc3c2c1NC(=O)c1ccccc1-3", "note": "[Example 25, 5-Methyl-6,7-dihydro-2H-benzo[5,6]azepino[4,3,2-cd]indazol-7-one]", "values": [{"measurement": "IC50", "value": "≤ 300", "unit": "nM"}]}, {"smiles": "OCc1cccc2c1CCc1cccc3[nH]nc-2c13", "note": "[Example 1, 6,7-Dihydro-2H-benzo[6,7]cyclohepta[cd]indazol-8-ylmethanol]", "values": [{"measurement": "IC50", "value": "≤ 300", "unit": "nM"}]}, {"smiles": "Nc1cccc2c1CCc1cccc3[nH]nc-2c13", "note": "[Example 8, 6,7-Dihydro-2H-benzo[6,7]cyclohepta[cd]indazole-8-amine]", "values": [{"measurement": "IC50", "value": "≤ 300", "unit": "nM"}]}]}
